Data published in ChEMBL document CHEMBL3991601, “The target landscape of clinical kinase drugs” (Science, 2017).
Active and inactive are the calls of the source.

How the values were obtained:
[1] = molecular target: T1, Cyclin-dependent kinase-like 5 (Homo sapiens, UniProt O76039)
T1 sequence (O76039 whole entry): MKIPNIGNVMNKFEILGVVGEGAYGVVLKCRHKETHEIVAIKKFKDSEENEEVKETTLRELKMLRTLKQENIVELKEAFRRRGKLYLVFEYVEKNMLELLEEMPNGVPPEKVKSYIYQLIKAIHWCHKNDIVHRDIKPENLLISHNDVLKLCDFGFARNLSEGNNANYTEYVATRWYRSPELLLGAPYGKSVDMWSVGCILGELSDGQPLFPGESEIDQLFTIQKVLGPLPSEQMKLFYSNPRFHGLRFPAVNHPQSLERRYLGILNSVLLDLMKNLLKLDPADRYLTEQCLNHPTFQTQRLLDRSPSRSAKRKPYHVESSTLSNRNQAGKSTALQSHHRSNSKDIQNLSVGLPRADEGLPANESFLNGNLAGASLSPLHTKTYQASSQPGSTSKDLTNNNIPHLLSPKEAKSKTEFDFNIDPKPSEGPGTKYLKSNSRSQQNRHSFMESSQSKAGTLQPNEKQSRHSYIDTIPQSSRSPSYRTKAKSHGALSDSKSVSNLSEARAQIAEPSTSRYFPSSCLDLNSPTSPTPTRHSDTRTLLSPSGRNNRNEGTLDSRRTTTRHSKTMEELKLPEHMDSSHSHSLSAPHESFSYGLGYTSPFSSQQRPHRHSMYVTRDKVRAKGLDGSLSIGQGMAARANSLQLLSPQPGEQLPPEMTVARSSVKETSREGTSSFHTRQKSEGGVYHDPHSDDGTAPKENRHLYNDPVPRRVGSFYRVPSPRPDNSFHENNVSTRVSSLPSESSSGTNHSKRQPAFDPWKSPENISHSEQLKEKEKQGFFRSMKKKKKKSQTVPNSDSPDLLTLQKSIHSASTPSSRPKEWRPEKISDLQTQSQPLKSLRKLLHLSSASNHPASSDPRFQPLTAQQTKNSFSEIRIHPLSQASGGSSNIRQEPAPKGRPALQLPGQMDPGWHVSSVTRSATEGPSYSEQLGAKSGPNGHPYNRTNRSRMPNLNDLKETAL

[2] = molecular target: T2, Receptor-type tyrosine-protein kinase FLT3 (Homo sapiens, UniProt P36888)
T2 sequence (P36888 whole entry): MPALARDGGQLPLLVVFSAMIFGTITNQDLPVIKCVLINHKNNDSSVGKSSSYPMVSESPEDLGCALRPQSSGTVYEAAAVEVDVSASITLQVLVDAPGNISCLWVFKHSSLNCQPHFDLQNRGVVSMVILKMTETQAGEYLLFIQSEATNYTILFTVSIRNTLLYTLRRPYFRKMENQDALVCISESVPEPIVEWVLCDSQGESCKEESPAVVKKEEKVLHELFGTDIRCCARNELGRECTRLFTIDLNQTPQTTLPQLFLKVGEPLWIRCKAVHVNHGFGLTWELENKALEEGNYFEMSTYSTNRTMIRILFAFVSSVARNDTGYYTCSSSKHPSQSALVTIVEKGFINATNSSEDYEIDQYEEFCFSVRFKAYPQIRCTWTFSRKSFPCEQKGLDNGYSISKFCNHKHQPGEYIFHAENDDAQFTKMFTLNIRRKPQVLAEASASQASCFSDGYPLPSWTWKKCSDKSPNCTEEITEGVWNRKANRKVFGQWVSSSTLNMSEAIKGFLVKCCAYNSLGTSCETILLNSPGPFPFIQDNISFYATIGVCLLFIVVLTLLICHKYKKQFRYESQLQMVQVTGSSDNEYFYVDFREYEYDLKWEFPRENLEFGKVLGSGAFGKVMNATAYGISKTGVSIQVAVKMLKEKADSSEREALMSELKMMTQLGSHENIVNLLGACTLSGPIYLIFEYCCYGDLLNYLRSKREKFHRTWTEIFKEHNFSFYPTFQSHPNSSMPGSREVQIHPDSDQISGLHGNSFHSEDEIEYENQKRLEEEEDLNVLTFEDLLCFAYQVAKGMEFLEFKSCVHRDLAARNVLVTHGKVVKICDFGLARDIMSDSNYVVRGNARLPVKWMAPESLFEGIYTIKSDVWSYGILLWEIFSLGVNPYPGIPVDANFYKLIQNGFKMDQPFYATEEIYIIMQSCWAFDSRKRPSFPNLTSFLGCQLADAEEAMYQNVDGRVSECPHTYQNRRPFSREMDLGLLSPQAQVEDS

[3] = molecular target: PAS domain-containing serine/threonine-protein kinase (Homo sapiens, UniProt Q96RG2)
Sequence of PAS domain-containing serine/threonine-protein kinase (Q96RG2 whole entry, the tested form may be a part): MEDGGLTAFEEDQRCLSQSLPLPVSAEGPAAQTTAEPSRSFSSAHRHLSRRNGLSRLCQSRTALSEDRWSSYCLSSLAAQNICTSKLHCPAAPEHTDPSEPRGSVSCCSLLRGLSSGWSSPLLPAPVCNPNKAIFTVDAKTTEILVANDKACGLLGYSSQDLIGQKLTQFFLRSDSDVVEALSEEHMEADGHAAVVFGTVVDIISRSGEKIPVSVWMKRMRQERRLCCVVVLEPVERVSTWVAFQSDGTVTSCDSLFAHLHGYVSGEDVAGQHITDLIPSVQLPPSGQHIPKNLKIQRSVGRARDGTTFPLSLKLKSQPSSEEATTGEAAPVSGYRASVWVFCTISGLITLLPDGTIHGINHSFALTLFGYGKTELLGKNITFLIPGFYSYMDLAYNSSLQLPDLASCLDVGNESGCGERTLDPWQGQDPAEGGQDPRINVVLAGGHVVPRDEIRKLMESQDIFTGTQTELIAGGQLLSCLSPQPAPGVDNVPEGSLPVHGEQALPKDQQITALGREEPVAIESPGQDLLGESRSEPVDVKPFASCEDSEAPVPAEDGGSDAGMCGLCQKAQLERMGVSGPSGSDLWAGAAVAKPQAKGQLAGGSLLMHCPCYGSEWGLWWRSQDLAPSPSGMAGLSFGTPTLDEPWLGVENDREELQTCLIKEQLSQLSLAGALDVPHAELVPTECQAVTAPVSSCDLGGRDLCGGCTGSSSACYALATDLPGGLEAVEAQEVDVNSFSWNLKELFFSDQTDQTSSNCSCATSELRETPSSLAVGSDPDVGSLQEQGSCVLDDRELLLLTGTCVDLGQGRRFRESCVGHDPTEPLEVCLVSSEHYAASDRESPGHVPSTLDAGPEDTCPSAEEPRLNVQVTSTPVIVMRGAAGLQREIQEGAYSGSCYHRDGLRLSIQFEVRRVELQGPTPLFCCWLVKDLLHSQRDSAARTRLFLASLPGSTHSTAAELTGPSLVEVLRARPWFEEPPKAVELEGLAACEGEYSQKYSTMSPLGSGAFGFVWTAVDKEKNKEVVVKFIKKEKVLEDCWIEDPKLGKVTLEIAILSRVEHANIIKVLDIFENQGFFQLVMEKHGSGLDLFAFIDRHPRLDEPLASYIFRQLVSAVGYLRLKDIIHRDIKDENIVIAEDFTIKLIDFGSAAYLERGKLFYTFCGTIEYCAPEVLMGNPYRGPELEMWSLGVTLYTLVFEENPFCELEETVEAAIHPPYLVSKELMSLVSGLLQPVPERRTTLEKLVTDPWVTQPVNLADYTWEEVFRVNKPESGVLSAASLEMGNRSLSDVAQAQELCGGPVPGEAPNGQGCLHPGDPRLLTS

[4] = molecular target: Phosphatidylethanolamine-binding protein 1 (Homo sapiens, UniProt P30086)
Sequence of Phosphatidylethanolamine-binding protein 1 (P30086 whole entry): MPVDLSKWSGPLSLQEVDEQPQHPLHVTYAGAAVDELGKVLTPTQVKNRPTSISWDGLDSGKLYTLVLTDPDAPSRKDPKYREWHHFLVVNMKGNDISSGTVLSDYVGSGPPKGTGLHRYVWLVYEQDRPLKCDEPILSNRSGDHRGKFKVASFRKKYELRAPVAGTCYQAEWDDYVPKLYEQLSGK

[5] = molecular target: Serine/threonine-protein kinase N3 (Homo sapiens, UniProt Q6P5Z2)
Sequence of Serine/threonine-protein kinase N3 (Q6P5Z2 whole entry): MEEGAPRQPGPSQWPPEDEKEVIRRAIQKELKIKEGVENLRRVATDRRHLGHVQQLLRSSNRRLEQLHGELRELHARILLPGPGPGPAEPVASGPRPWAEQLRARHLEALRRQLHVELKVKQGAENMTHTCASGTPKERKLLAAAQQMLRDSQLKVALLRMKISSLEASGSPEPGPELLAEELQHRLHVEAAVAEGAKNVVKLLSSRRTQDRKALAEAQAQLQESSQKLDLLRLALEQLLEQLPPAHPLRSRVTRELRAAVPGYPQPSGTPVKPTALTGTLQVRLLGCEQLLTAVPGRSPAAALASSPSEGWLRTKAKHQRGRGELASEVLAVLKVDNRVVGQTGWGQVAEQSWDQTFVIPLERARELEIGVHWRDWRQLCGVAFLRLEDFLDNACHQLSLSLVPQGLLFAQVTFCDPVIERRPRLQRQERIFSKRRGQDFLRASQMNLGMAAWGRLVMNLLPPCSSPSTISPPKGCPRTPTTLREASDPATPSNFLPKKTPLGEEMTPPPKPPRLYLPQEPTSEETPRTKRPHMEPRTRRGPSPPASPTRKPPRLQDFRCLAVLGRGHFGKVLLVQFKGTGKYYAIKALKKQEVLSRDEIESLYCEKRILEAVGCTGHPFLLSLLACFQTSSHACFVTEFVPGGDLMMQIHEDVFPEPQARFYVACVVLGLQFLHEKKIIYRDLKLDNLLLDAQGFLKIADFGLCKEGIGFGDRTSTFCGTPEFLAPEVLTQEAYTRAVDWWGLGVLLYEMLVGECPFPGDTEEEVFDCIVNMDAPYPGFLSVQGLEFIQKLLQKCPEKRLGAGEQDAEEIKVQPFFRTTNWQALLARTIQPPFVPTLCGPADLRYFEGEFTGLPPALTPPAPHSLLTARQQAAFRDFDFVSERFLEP

[6] = molecular target: DNA topoisomerase 2-alpha (Homo sapiens, UniProt P11388)
Sequence of DNA topoisomerase 2-alpha (P11388 whole entry): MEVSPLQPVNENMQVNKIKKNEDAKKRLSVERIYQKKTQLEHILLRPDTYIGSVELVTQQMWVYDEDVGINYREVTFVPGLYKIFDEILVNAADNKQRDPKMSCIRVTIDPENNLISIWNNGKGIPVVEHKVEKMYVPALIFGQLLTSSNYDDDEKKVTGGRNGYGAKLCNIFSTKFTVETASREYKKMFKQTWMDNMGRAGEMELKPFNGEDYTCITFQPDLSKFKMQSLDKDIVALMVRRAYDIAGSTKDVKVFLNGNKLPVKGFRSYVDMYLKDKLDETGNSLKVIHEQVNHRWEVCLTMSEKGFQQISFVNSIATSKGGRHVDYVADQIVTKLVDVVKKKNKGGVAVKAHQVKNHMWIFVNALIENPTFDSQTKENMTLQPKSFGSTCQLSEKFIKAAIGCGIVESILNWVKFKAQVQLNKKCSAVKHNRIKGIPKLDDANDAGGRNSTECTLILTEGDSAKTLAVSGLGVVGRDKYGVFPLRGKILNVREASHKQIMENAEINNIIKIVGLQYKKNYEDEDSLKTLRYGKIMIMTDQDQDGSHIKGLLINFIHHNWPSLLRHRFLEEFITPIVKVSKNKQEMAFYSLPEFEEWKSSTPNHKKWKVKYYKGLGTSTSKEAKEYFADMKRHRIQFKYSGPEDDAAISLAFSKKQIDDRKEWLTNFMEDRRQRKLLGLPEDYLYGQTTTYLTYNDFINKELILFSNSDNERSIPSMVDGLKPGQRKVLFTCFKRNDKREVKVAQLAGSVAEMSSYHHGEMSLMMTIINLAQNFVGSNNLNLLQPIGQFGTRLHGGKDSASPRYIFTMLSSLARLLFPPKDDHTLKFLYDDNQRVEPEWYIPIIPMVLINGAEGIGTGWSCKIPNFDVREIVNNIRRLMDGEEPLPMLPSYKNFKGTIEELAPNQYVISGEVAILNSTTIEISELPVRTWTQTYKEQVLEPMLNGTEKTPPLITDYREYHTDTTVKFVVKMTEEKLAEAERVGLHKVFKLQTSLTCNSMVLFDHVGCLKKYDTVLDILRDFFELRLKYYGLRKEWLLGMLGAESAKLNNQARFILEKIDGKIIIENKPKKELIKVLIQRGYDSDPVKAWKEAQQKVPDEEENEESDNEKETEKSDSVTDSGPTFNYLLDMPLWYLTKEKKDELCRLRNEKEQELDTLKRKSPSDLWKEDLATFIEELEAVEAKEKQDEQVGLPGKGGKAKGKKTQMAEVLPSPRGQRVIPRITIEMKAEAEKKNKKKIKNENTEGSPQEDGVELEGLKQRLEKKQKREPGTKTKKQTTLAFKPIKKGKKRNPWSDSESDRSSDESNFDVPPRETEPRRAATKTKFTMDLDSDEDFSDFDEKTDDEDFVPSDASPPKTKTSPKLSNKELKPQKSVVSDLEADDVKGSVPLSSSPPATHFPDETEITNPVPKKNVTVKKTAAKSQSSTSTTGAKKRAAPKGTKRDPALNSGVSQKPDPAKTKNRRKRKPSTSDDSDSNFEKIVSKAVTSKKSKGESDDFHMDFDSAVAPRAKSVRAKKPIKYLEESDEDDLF

[7] = molecular target: Dual specificity mitogen-activated protein kinase kinase 1 (Homo sapiens, UniProt Q02750)
Sequence of Dual specificity mitogen-activated protein kinase kinase 1 (Q02750 whole entry): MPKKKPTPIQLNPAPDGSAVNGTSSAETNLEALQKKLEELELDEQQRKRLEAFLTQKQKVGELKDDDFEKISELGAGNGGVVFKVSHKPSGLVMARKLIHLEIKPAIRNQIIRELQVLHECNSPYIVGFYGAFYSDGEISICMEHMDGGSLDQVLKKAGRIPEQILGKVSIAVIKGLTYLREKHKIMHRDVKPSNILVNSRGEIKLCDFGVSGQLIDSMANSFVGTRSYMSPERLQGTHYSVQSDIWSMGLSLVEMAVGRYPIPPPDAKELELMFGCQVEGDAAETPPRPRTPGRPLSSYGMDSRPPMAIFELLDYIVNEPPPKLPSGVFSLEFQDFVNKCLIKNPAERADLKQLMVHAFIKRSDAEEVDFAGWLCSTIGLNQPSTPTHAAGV
Also: in the data inactive means no Kd found up to 30 µM.

Row | Compound | Kd [1] | Kd [2] | Kd [3] | Kd [4] | Kd [5] | Kd [6] | Kd [7]
1 | O=C(Nc1ccc(OC(F)(F)F)cc1)c1sccc1NCc1ccnc2ccccc12 [OSI-930] | > 30 µM (inactive) | > 30 µM (inactive) | > 30 µM (inactive) | – | > 30 µM (inactive) | > 30 µM (inactive) | > 30 µM (inactive)
2 | O=C(NOC[C@H](O)CO)c1ccc(F)c(F)c1Nc1ccc(I)cc1F [MIRDAMETINIB] | – | > 30 µM (inactive) | > 30 µM (inactive) | – | > 30 µM (inactive) | > 30 µM (inactive) | –
3 | COc1cc2c(N3CCN(C(=O)Nc4ccc(OC(C)C)cc4)CC3)ncnc2cc1OCCCN1CCCCC1 [TANDUTINIB] | – | – | > 30 µM (inactive) | – | > 30 µM (inactive) | – | –
4 | S=C(NCc1ccc2c(c1)OCO2)N1CCN(c2ncnc3c2oc2ccccc23)CC1 [AMUVATINIB] | – | > 30 µM (inactive) | > 30 µM (inactive) | > 30 µM (inactive) | > 30 µM (inactive) | > 30 µM (inactive) | > 30 µM (inactive)
5 | O=S(=O)(c1cccc2c(O)nccc12)N1CCCNCC1 [HYDROXYFASUDIL] | > 30 µM (inactive) | > 30 µM (inactive) | > 30 µM (inactive) | > 30 µM (inactive) | > 30 µM (inactive) | > 30 µM (inactive) | > 30 µM (inactive)
6 | CC1(COc2ccc3c(c2)ncn3-c2ccc3cccc(N4CCC(N)CC4)c3n2)COC1 [CRENOLANIB] | > 30 µM (inactive) | – | > 30 µM (inactive) | > 30 µM (inactive) | > 30 µM (inactive) | > 30 µM (inactive) | > 30 µM (inactive)
7 | CCc1cc2c(cc1N1CCC(N3CCOCC3)CC1)C(C)(C)c1[nH]c3cc(C#N)ccc3c1C2=O [ALECTINIB] | > 30 µM (inactive) | > 30 µM (inactive) | > 30 µM (inactive) | > 30 µM (inactive) | > 30 µM (inactive) | > 30 µM (inactive) | > 30 µM (inactive)
8 | C=CCn1c(=O)c2cnc(Nc3ccc(N4CCN(C)CC4)cc3)nc2n1-c1cccc(C(C)(C)O)n1 [ADAVOSERTIB] | > 30 µM (inactive) | – | > 30 µM (inactive) | > 30 µM (inactive) | > 30 µM (inactive) | > 30 µM (inactive) | –
9 | C[C@]1(O)C[C@@H](c2nc(-c3ccc4ccc(-c5ccccc5)nc4c3)c3c(N)nccn32)C1 [LINSITINIB] | – | – | > 30 µM (inactive) | – | > 30 µM (inactive) | – | –
10 | CN(c1ncccc1CNc1nc(Nc2ccc3c(c2)CC(=O)N3)ncc1C(F)(F)F)S(C)(=O)=O [PF-00562271] | > 30 µM (inactive) | – | > 30 µM (inactive) | > 30 µM (inactive) | > 30 µM (inactive) | – | –
11 | C=CC(=O)Nc1cc(Nc2nccc(-c3cn(C)c4ccccc34)n2)c(OC)cc1N(C)CCN(C)C [OSIMERTINIB] | > 30 µM (inactive) | > 30 µM (inactive) | – | > 30 µM (inactive) | > 30 µM (inactive) | > 30 µM (inactive) | > 30 µM (inactive)
12 | CN1CCN(c2nc(C3=C(c4c[nH]c5ccccc45)C(=O)NC3=O)c3ccccc3n2)CC1 [SOTRASTAURIN] | > 30 µM (inactive) | > 30 µM (inactive) | – | – | > 30 µM (inactive) | > 30 µM (inactive) | > 30 µM (inactive)

More lines, now with the values ahead:

Row | Kd [1] | Kd [2] | Kd [3] | Kd [4] | Kd [5] | Kd [6] | Kd [7] | Compound
13 | > 30 µM (inactive) | > 30 µM (inactive) | > 30 µM (inactive) | > 30 µM (inactive) | > 30 µM (inactive) | > 30 µM (inactive) | – | O=C(NC[C@H](O)CO)c1ccncc1Nc1ccc(I)cc1F [PIMASERTIB]
14 | – | – | > 30 µM (inactive) | > 30 µM (inactive) | > 30 µM (inactive) | > 30 µM (inactive) | – | COc1cc2c(Oc3ccc4[nH]c(C)cc4c3F)ncnc2cc1OCCCN1CCCC1 [CEDIRANIB]
15 | – | > 30 µM (inactive) | > 30 µM (inactive) | > 30 µM (inactive) | > 30 µM (inactive) | > 30 µM (inactive) | > 30 µM (inactive) | CNC(=O)c1cc(COc2nnc(Nc3ccc(Cl)cc3)c3ccoc23)ccn1 [TELATINIB]
16 | > 30 µM (inactive) | 1.68 µM (active) | > 30 µM (inactive) | > 30 µM (inactive) | > 30 µM (inactive) | > 30 µM (inactive) | > 30 µM (inactive) | Cc1cc(Nc2nc(N[C@@H](C)c3ncc(F)cn3)ncc2Cl)n[nH]1 [AZD-1480]
17 | > 30 µM (inactive) | > 30 µM (inactive) | > 30 µM (inactive) | – | > 30 µM (inactive) | > 30 µM (inactive) | > 30 µM (inactive) | C[C@@H]1COC(Nc2ccc3ncnc(Nc4ccc(OCc5nccs5)c(Cl)c4)c3c2)=N1 [VARLITINIB]
18 | – | – | > 30 µM (inactive) | > 30 µM (inactive) | > 30 µM (inactive) | > 30 µM (inactive) | – | Cn1cnc2c(F)c(Nc3ccc(Br)cc3Cl)c(C(=O)NOCCO)cc21 [SELUMETINIB]
19 | > 30 µM (inactive) | > 30 µM (inactive) | > 30 µM (inactive) | > 30 µM (inactive) | > 30 µM (inactive) | > 30 µM (inactive) | > 30 µM (inactive) | C#Cc1cccc(Nc2ncnc3cc4c(cc23)OCCOCCOCCO4)c1 [ICOTINIB]
20 | > 30 µM (inactive) | > 30 µM (inactive) | – | > 30 µM (inactive) | > 30 µM (inactive) | > 30 µM (inactive) | > 30 µM (inactive) | COc1ccc2c(OCc3nnc4ccc(-c5ccccc5)nn34)ccnc2c1 [AMG-208]
21 | > 30 µM (inactive) | > 30 µM (inactive) | > 30 µM (inactive) | > 30 µM (inactive) | > 30 µM (inactive) | – | > 30 µM (inactive) | CNC(=O)c1cccc(-c2ccc3c(N4CCOC[C@@H]4C)nc(N4CCOC[C@@H]4C)nc3n2)c1 [VISTUSERTIB]
22 | – | > 30 µM (inactive) | > 30 µM (inactive) | > 30 µM (inactive) | > 30 µM (inactive) | > 30 µM (inactive) | 0.021 µM (active) | Cn1c(=O)c(F)c(Nc2ccc(I)cc2F)c2c(=O)n(C[C@@H](O)CO)cnc21 [TAK-733]
23 | – | 0.309 µM (active) | > 30 µM (inactive) | > 30 µM (inactive) | > 30 µM (inactive) | > 30 µM (inactive) | > 30 µM (inactive) | Cc1ccc(C(=O)Nc2ccc(Oc3cc4cnn(C)c4cc3-c3cn[nH]c3)c(F)c2)c(=O)n1-c1ccc(F)cc1 [MERESTINIB]
24 | > 30 µM (inactive) | > 30 µM (inactive) | > 30 µM (inactive) | – | > 30 µM (inactive) | – | > 30 µM (inactive) | Cc1cc(-c2cc(OC(=O)c3ccccc3)ccc2Cl)cc2nnc(Nc3ccc(OCCN4CCCC4)cc3)nc12 [TG100-801]
25 | – | – | > 30 µM (inactive) | > 30 µM (inactive) | > 30 µM (inactive) | > 30 µM (inactive) | – | CN(C)C/C=C/C(=O)Nc1cc2c(Nc3ccc(F)c(Cl)c3)ncnc2cc1O[C@H]1CCOC1 [AFATINIB]
26 | > 30 µM (inactive) | > 30 µM (inactive) | – | > 30 µM (inactive) | > 30 µM (inactive) | > 30 µM (inactive) | > 30 µM (inactive) | c1cc(OCCN2CCCCC2)cc(-c2n[nH]c3ccc(-c4nc[nH]n4)cc23)c1 [CC-401]
